Test results published in the NIST ThermoML archive (doi:10.1016/j.jct.2016.08.015).
Numbers after ± are expanded uncertainties.

Assay: xn = mol fraction of the nth substance listed
Details: 101.3 kPa, Liquid, Pycnometric method

Compound | mass density (303.15 K, x1 = 0.75) | mass density (313.15 K, x1 = 0.75) | mass density (323.15 K, x1 = 0.75) | mass density (333.15 K, x1 = 0.75) | mass density (303.15 K, x2 = 0.75) | mass density (313.15 K, x2 = 0.75) | mass density (323.15 K, x2 = 0.75) | mass density (333.15 K, x2 = 0.75)
CC(=O)CCC(=O)O [4-oxopentanoic acid] + CCCC[N+](CCCC)(CCCC)CCCC.[Br-] | 1093.5 ± 1.1 kg/m3 | 1086.2 ± 1.1 kg/m3 | 1078.8 ± 1.1 kg/m3 | 1072.1 ± 1.1 kg/m3 | – | – | – | –
CC(=O)CCC(=O)O [4-oxopentanoic acid] + CC[N+](CC)(CC)CC.[Br-] | 1169.9 ± 1.1 kg/m3 | 1162.2 ± 1.1 kg/m3 | 1154.6 ± 1.1 kg/m3 | 1147.4 ± 1.2 kg/m3 | – | – | – | –
CC(=O)OCC[N+](C)(C)C.[Cl-] [acetylcholine chloride] + CC(=O)CCC(=O)O | – | – | – | – | 1136.9 ± 1.1 kg/m3 | 1129.4 ± 1.1 kg/m3 | 1121.8 ± 1.1 kg/m3 | 1114.4 ± 1.1 kg/m3
CCCC[N+](CCCC)(CCCC)CCCC.[Cl-] [tetrabutylammonium chloride] + CC(=O)CCC(=O)O | – | – | – | – | 1027.3 ± 1.2 kg/m3 | 1020.3 ± 1.3 kg/m3 | 1013.1 ± 1.3 kg/m3 | 1006 ± 1.3 kg/m3
CC[N+](CC)(CC)CC.[Cl-] [tetraethylammonium chloride] + CC(=O)CCC(=O)O | – | – | – | – | 1090.3 ± 1.3 kg/m3 | 1083.3 ± 1.3 kg/m3 | 1076.1 ± 1.3 kg/m3 | 1069.2 ± 1.3 kg/m3
